Data reported in the NIST ThermoML archive (doi:10.1021/je700152c).
Numbers after ± are expanded uncertainties.

Experiment: Molar enthalpy of transition or fusion
Conditions: Adiabatic calorimetry

Structure (SMILES): CCCCn1cc[n+](C)c1.Cc1ccc(S(=O)(=O)[O-])cc1 [1-butyl-3-methylimidazolium tosylate]
- Molar enthalpy of transition or fusion (Crystal 1): 21.6 ± 0.24 kJ/mol
- Molar enthalpy of transition or fusion (Crystal 2): 0.194 ± 0.2 kJ/mol
- Molar enthalpy of transition or fusion (Metastable crystal): 19.9 ± 0.26 kJ/mol
